Assay results: US20190374601A1, “METHODS FOR TREATING FUNGAL INFECTIONS” (priority 2017, published 2019)
Starred links: 1 amine or outer side, 2 acyl side, 3 side chain; linkers in the order of their positions; H or OH if unused. Positions of bridges follow the written chain, without caps; N, C: chain ends. Non-standard residues stand in square brackets, D forms with d. Residues, ends and D or L forms follow the SMILES beside them. *: point of attachment. Orn(4R-OH,5R-OCH2CH2NMe3+) = C[N+](C)(C)CCO[C@@H](N[*:3])[C@H](O)C[C@H](N[*:1])C(=O)[*:2]; pTerphenylCO(4''-OnC5H11) = CCCCCOc1ccc(-c2ccc(-c3ccc(C(=O)*)cc3)cc2)cc1; hTyr(3S-OH,4S-OH) = N[C@H](C(=O)O)[C@H](O)[C@@H](O)c1ccc(O)cc1; Pro(3S-OH,4S-Me) = C[C@H]1CN[C@H](C(=O)O)[C@H]1O; Hyp = O=C(O)[C@@H]1C[C@@H](O)CN1

Assay: Mortality, clinical observations and body weights after subcutaneous injection in cynomolgus monkeys
Assay type: in vivo
Settings: 30, 60, 120 mg/kg/dose SC once every 3 days (5 doses)
Protocol: Dose levels were 30, 60, and 120 mg/kg/dose for Groups 2, 3, and 4, respectively. […] The dose volumes were 1.2, 0.3, 0.6, and 1.2 mL/kg spread evenly over 4, 1, 2, and 4 dose sites for Groups 1-4, respectively, on each day of dosing. The control and 120 mg/kg/dose groups each consisted of 5 males and 5 females, and the 30 and 60 mg/kg/dose groups each consisted of 3 males and 3 females.
The animals were observed twice daily for mortality and moribundity. Clinical examinations were performed once daily for at least 6 consecutive days, including the day of randomization, prior to randomization, prior to dosing, 1-2 hours postdosing, once daily on nondosing days, and once daily during the recovery period. Detailed physical examinations were performed at least weekly during the acclimation period until randomization, on the day of randomization, weekly (±2 days) during the study period, and on the day of the scheduled necropsies. […] Individual body weights were recorded weekly (±2 days). […] Clinical pathology parameters (hematology, coagulation, serum chemistry, and urinalysis) were analyzed during acclimation prior to randomization (Study Day −15), and on the day of the primary (Study Day 17) and recovery (Study Day 45) necropsies. […]

## CCCCCOc1ccc(-c2ccc(-c3ccc(C(=O)N[C@H]4C[C@@H](O)[C@@H](OCC[N+](C)(C)C)NC(=O)[C@@H]5[C@@H](O)[C@@H](C)CN5C(=O)[C@H]([C@@H](C)O)NC(=O)[C@H]([C@H](O)[C@@H](O)c5ccc(O)cc5)NC(=O)[C@@H]5C[C@@H](O)CN5C(=O)[C@H]([C@@H](C)O)NC4=O)cc3)cc2)cc1 [CD101] ({pTerphenylCO(4''-OnC5H11)}-[Orn(4R-OH,5R-OCH2CH2NMe3+)]T[Hyp][hTyr(3S-OH,4S-OH)]T[Pro(3S-OH,4S-Me)]; lactam 1-C)
  survival: All animals survived to the scheduled necropsies
  test article-related clinical observations and effects on body weights: no test article-related clinical observations or effects on body weights
